Molecular target: IKZF2 (Homo sapiens (Human), UniProt Q96SW2+Q9UKS7)
Test: IKZF2 HiBiT Assay (Jurkat-IKZF2-HiBiT cell line)
Type: cell-based
Details: Jurkat-IKZF2-HiBiT cells, 24 hours; for DC50: read-out: HiBit assay degradation analysis DC50; for Dmax: read-out: HiBit assay degradation analysis Dmax
Outline: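 Jurkat cells carrying HiBiT-tagged IKZF2 were exposed to serially diluted compound for 24 h at 37 °C. Remaining IKZF2 was measured by Nano-Glo HiBiT lytic luminescence after 10-20 min at room temperature. Signal was normalized to DMSO, and IC50 came from a four-parameter variable-slope fit.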

Sequence of IKZF2 (Q9UKS7 whole entry): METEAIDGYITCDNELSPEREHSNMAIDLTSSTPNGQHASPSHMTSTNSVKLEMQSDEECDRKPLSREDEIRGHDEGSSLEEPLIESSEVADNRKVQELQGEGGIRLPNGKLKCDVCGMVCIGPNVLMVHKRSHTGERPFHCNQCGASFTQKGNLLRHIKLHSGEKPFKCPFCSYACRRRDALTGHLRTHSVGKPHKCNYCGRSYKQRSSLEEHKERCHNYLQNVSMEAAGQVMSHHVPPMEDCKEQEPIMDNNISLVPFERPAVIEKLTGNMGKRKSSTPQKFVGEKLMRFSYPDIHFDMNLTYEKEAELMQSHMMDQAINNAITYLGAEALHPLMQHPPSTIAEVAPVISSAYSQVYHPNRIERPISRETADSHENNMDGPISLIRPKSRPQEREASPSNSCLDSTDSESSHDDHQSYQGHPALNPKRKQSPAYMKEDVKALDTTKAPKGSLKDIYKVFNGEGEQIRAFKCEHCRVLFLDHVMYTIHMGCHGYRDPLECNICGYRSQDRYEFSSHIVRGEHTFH
Sequence of IKZF2 (Q96SW2 whole entry): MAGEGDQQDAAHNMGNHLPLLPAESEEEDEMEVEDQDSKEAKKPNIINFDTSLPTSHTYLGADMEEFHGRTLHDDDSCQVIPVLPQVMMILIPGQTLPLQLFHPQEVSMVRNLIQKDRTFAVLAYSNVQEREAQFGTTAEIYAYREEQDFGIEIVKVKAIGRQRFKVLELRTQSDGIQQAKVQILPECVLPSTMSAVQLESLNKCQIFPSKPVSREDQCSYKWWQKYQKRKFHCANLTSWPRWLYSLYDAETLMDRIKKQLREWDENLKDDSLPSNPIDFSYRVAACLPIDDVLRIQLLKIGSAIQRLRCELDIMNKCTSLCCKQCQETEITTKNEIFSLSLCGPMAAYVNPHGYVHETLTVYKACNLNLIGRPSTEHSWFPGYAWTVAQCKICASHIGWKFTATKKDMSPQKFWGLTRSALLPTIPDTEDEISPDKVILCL
Sequence of IKZF2 (Q16531 whole entry partner): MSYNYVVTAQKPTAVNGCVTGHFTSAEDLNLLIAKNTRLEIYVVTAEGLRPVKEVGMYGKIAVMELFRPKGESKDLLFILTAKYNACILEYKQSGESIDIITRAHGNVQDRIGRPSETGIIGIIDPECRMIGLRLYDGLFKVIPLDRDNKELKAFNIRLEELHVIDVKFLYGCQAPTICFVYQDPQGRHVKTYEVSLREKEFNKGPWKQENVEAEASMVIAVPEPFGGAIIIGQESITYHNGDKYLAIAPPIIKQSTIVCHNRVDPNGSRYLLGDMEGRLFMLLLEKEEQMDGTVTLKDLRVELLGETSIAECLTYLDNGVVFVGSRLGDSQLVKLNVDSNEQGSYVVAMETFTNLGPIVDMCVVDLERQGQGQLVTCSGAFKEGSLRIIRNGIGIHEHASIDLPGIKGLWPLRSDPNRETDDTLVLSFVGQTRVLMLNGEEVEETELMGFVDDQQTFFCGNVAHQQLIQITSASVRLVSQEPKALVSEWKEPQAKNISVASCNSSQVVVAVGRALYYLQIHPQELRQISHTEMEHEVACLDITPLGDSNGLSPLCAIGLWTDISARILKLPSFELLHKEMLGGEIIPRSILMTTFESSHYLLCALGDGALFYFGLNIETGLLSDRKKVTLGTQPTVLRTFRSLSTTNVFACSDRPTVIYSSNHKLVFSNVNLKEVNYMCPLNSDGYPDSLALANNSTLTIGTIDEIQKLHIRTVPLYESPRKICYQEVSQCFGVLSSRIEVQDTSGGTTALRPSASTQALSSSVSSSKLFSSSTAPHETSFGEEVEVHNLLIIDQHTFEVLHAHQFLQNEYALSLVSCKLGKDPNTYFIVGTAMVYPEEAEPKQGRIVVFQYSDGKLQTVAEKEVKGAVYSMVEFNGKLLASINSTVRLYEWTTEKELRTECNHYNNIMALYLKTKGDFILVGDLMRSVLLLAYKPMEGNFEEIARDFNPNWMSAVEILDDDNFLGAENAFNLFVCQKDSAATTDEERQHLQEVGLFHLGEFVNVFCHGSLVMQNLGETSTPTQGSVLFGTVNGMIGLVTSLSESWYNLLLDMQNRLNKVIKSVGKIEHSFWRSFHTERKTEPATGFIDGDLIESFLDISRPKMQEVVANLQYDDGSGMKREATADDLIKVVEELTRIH

SMILES | DC50 [nM] | Dmax [%]
O=C1CCC(N2Cc3c(ccc4c3OCC43CCN(Cc4cc(F)cc(F)c4)CC3)C2=O)C(=O)N1 (centres unmarked) [Compound A28, 3-(1′-(3,5-difluorobenzyl)-6-oxo-6,8-dihydro-2H,7H-spiro[furo[2,3-e]isoindole-3,4′-piperidin]-7-yl)piperidine-2,6-dione] | > 500 | 40 to 60
O=C1CCC(N2Cc3c(ccc4c3OCC43CCN(Cc4ccc(OCc5ccccc5)cn4)CC3)C2=O)C(=O)N1 (centres unmarked) [Compound A338, 3-(1′-((5-(benzyloxy)pyridin-2-yl)methyl)-6-oxo-6,8-dihydro-2H,7H-spiro[furo[2,3-e]isoindole-3,4′-piperidin]-7-yl)piperidine-2,6-dione] | > 500 | < 40
CC1(Cn2cc(CN3CCC4(CC3)COc3c4ccc4c3CN(C3CCC(=O)NC3=O)C4=O)cn2)COC1 (centres unmarked) [Compound A320, 3-(1′-((1-((3-methyloxetan-3-yl)methyl)-1H-pyrazol-4-yl)methyl)-6-oxo-6,8-dihydro-2H,7H-spiro[furo[2,3-e]isoindole-3,4′-piperidin]-7-yl)piperidine-2,6-dione] | > 500 | 40 to 60
Cn1ccc(COc2cccc(CN3CCC4(CC3)COc3c4ccc4c3CN(C3CCC(=O)NC3=O)C4=O)c2)n1 (centres unmarked) [Compound A167, 3-(1′-(3-((1-methyl-1H-pyrazol-3-yl)methoxy)benzyl)-6-oxo-6,8-dihydro-2H,7H-spiro[furo[2,3-e]isoindole-3,4′-piperidin]-7-yl)piperidine-2,6-dione] | 50 to 200 | 40 to 60
O=C1CCC(N2Cc3c(ccc4c3OCC43CCN(Cc4cccc5[nH]cc(Cl)c45)CC3)C2=O)C(=O)N1 (centres unmarked) [Compound A141, 3-(1′-((3-chloro-1H-indol-4-yl)methyl)-6-oxo-6,8-dihydro-2H,7H-spiro[furo[2,3-e]isoindole-3,4′-piperidin]-7-yl)piperidine-2,6-dione] | < 50 | 60 to 80
O=C1CCC(N2Cc3c(ccc4c3OCC43CCN(CC4CCN(c5ccccc5)C4)CC3)C2=O)C(=O)N1 (centres unmarked) [Compound A138, 3-(6-oxo-1′-((1-phenylpyrrolidin-3-yl)methyl)-6,8-dihydro-2H,7H-spiro[furo[2,3-e]isoindole-3,4′-piperidin]-7-yl)piperidine-2,6-dione] | > 500 | 40 to 60
O=C1CC[C@H](N2Cc3c(ccc4c3OCC43CCN(C4Cc5ccccc5C4)CC3)C2=O)C(=O)N1 [Compound A275, (S)-3-(1′-(2,3-dihydro-1H-inden-2-yl)-6-oxo-6,8-dihydro-2H,7H-spiro[furo[2,3-e]isoindole-3,4′-piperidin]-7-yl)piperidine-2,6-dione] | > 500 | 40 to 60
O=C1CCC(N2Cc3c(ccc4c3OCC43CCN(Cc4ccnc(Cl)c4)CC3)C2=O)C(=O)N1 (centres unmarked) [Compound A250, 3-(1′-((2-chloropyridin-4-yl)methyl)-6-oxo-6,8-dihydro-2H,7H-spiro[furo[2,3-e]isoindole-3,4′-piperidin]-7-yl)piperidine-2,6-dione] | > 500 | < 40
O=C1CCC(N2Cc3c(ccc4c3OCC43CCN(CC4C5CC6CC(C5)CC4C6)CC3)C2=O)C(=O)N1 (centres unmarked) [Compound A23, 3-(1′-(((1r,3r,5r,7r)-adamantan-2-yl)methyl)-6-oxo-6,8-dihydro-2H,7H-spiro[furo[2,3-e]isoindole-3,4′-piperidin]-7-yl)piperidine-2,6-dione] | > 500 | < 40
O=C1CCC(N2Cc3c(ccc4c3OCCC43CCN(Cc4ccccc4)CC3)C2=O)C(=O)N1 (centres unmarked) [Compound A13, 3-(1-benzyl-7′-oxo-2′,3′,7′,9′-tetrahydro-8′H-spiro[piperidine-4,4′-pyrano[2,3-e]isoindol]-8′-yl)piperidine-2,6-dione] | > 500 | < 40
O=C1CCC(N2Cc3c(ccc4c3OCC43CCN(Cc4cccc(-c5nccs5)c4)CC3)C2=O)C(=O)N1 (centres unmarked) [Compound A106, 3-(6-oxo-1′-(3-(thiazol-2-yl)benzyl)-6,8-dihydro-2H,7H-spiro[furo[2,3-e]isoindole-3,4′-piperidin]-7-yl)piperidine-2,6-dione] | < 50 | 60 to 80
O=C1CC[C@H](N2Cc3c(ccc4c3OCC43CCN(Cc4cnn(S(=O)(=O)c5ccccc5Cl)c4)CC3)C2=O)C(=O)N1 [Compound A349, (S)-3-(1′-((1-((2-chlorophenyl)sulfonyl)-1H-pyrazol-4-yl)methyl)-6-oxo-6,8-dihydro-2H,7H-spiro[furo[2,3-e]isoindole-3,4′-piperidin]-7-yl)piperidine-2,6-dione] | < 50 | 60 to 80
O=C1CC[C@H](N2Cc3c(ccc4c3OCC43CCN(C[C@@H]4C[C@H]4c4ccc(F)cc4)CC3)C2=O)C(=O)N1 [Compound A362, (S)-3-(1′-(((1R,2R)-2-(4-fluorophenyl)cyclopropyl)methyl)-6-oxo-6,8-dihydro-2H,7H-spiro[furo[2,3-e]isoindole-3,4′-piperidin]-7-yl)piperidine-2,6-dione] | > 500 | 40 to 60
O=C1CCC(N2Cc3c(ccc4c3OCC43CCN(Cc4cccnc4Cl)CC3)C2=O)C(=O)N1 (centres unmarked) [Compound A249, 3-(1′-((2-chloropyridin-3-yl)methyl)-6-oxo-6,8-dihydro-2H,7H-spiro[furo[2,3-e]isoindole-3,4′-piperidin]-7-yl)piperidine-2,6-dione] | > 500 | < 40
CC(=O)Nc1cccc(CN2CCC3(CC2)COc2c3ccc3c2CN(C2CCC(=O)NC2=O)C3=O)c1 (centres unmarked) [Compound A176, N-(3-((7-(2,6-dioxopiperidin-3-yl)-6-oxo-7,8-dihydro-2H,6H-spiro[furo[2,3-e]isoindole-3,4′-piperidin]-1′-yl)methyl)phenyl) acetamide] | > 500 | 40 to 60
O=C1CCC(N2Cc3c(ccc4c3OCC43CCN(Cc4ccccc4Cn4cccn4)CC3)C2=O)C(=O)N1 (centres unmarked) [Compound A155, 3-(1′-(2-((1H-pyrazol-1-yl)methyl)benzyl)-6-oxo-6,8-dihydro-2H,7H-spiro[furo[2,3-e]isoindole-3,4′-piperidin]-7-yl)piperidine-2,6-dione] | > 500 | 40 to 60
O=C1CCC(N2Cc3c(ccc4c3OCC43CCN(CC4CCCC4)CC3)C2=O)C(=O)N1 (centres unmarked) [Compound A18, 3-(1′-(cyclopentylmethyl)-6-oxo-6,8-dihydro-2H,7H-spiro[furo[2,3-e]isoindole-3,4′-piperidin]-7-yl)piperidine-2,6-dione] | > 500 | < 40
O=C1CCC(N2Cc3c(ccc4c3OCC43CCN(Cc4ccn(-c5ccc(Cl)cc5)n4)CC3)C2=O)C(=O)N1 (centres unmarked) [Compound A243, 3-(1′-((1-(4-chlorophenyl)-1H-pyrazol-3-yl)methyl)-6-oxo-6,8-dihydro-2H,7H-spiro[furo[2,3-e]isoindole-3,4′-piperidin]-7-yl)piperidine-2,6-dione] | 50 to 200 | 60 to 80
O=C1CCC(N2Cc3c(ccc4c3OCC43CCN(Cc4ccccc4OCc4ccccn4)CC3)C2=O)C(=O)N1 (centres unmarked) [Compound A157, 3-(6-oxo-1′-(2-(pyridin-2-ylmethoxy)benzyl)-6,8-dihydro-2H,7H-spiro[furo[2,3-e]isoindole-3,4′-piperidin]-7-yl)piperidine-2,6-dione] | < 50 | 60 to 80
